The values below come from US20220143021A1 (Cardiff Oncology, Inc., priority 2019, published 2022).

Series [1] relates to human prostate tissues. The experiment in a line: organ bath, U46619-induced contractions of human prostate strips. The note with it: 100 nM onvansertib. The protocol:
(§1) Human prostate tissues were obtained from patients undergoing radical prostatectomy for prostate cancer (n=107). Patients who underwent previous transurethral resection of the prostate (TURP) were excluded. This study was carried out in accordance with the Declaration of Helsinki of the World Medical Association, and has been approved by the ethics committee of the Ludwig-Maximilians University, Munich, Germany (Ethikkommission bei der LMU Munchen, approval number 19-737). Informed consent was obtained from all patients. According to the ethical approval, samples and data were collected and analyzed anonymously, so that no data on patients' characteristics were stored. […]
(§2) Prostate strips (6×3×3 mm) were mounted in 10 ml aerated (95% 02 and 5% CO2) tissue baths (Danish Myotechnology, Aarhus, Denmark), containing Krebs-Henseleit solution (37° C., pH 7.4) with following composition: 118 mM NaCl, 4.7 mM KCl, 2.55 mM CaCl2), 1.2 mM KH2PO4, 1.2 mM MgSO4, 25 mM NaHCO3, 7.5 mM glucose. […] Only one curve was recorded with each sample, i. e. for one agonist, or for electric field stimulation (EFS).
(§3) After mounting in organ bath chambers, preparations were stretched to 4.9 mN and left to equilibrate for 45 min. […] After the equilibration period, maximum contraction induced by 80 mM KCl was assessed. […]

For series [2], the system named is human prostate tissues. The experiment in a line: organ bath, phenylephrine-induced contractions of human prostate strips. As to the method:
as §1, §2, §3

Series [3] has as its system human prostate tissues. As to the kind of experiment: organ bath, EFS-induced (neurogenic) contractions of human prostate strips. From the text:
Patients who underwent previous transurethral resection of the prostate (TURP) were excluded. […] Informed consent was obtained from all patients. According to the ethical approval, samples and data were collected and analyzed anonymously, so that no data on patients' characteristics were stored. Samples were taken immediately after prostatectomy, following macroscopical examination by an uro-pathologist. […] For macroscopic examination and sampling, the prostate was opened by a single longitudinal cut from the capsule to the urethra. Subsequently, both intersections were checked macroscopically for any obvious tumor infiltration. […] Prostates showing tumors in the periurethral zone in macroscopic inspection were not subjected to sampling and were not included in this study. Organ bath studies were performed immediately after sampling, while samples for molecular analyses were shock frozen in liquid nitrogen and stored at −80° C.
In each single experiment, two from four strips obtained from the same prostate were allocated to the control group (without inhibitor or antagonist), and two others to the inhibitor/antagonist group (resulting in duplicate determination for each group in each single experiment). All four samples of one experiment were examined in four chambers of the same organ bath. Consequently, control and inhibitor curves in each series/diagram were obtained from the same prostates, but different prostates were examined for different series/diagrams. […] Therefore, and considering that prostate tissues from radical prostatectomy may show considerable heterogeneity, statistical comparisons were only performed between groups within the same series (i. e. containing tissues from the same prostates for inhibitor and control group), but not between series obtained from different prostates (i. e., not across different series of organ bath experiments). Only one curve was recorded with each sample, i. e. for one agonist, or for electric field stimulation (EFS).
Subsequently, chambers were washed three times with Krebs-Henseleit solution for a total of 30 min.
Application of EFS simulates action potentials, resulting in the release of endogenous neurotransmitters, including noradrenaline. […] For EFS, tissue strips were placed between two parallel platinum electrodes connected to a CS4 stimulator (Danish Myotechnology). […] EFS-induced contractile responses were studied at frequencies of 2, 4, 8, 16, and 32 Hz, with train intervals of 30 s between stimulations.
Data analyses and calculations were based on maximum peak heights of contractions. For calculation of agonist- or EFS-induced contractions, tensions were expressed as % of KCl-induced contractions, as this may correct different stromal/epithelial ratios, different smooth muscle content, varying degree of BPH, or any other heterogeneity between prostate samples and patients.

For series [4] the following is noted: humans, phase I, even by the lowest dosages tested (Weiss et al., 2018); cited from earlier work.

Several values for one entry are separate records, joined by “and”; a condition that tells them apart may be missing. Equal entries are not always repeated.

In the case of `CN1CCN(c2ccc(OC(F)(F)F)c(Nc3ncc4c(n3)-c3c(c(C(N)=O)nn3CCO)CC4)c2)CC1` [onvansertib, 1-(2-hydroxyethyl)-8-{[5-(4-methylpiperazin-1-yl)-2-(trifluoromethoxy)phenyl]amino}-4,5-dihydro-1H-pyrazolo[4,3-h] quinazoline-3-carboxamide], in the series on human prostate tissues [1], the “effect on U46619-induced contractions” value is given as “did not change”. This molecule gave an inhibition at 0.1 µM in the series on human prostate tissues [2] of 47 ± 16.2%. Further, the “inhibition of EFS-induced contraction by add-on of onvansertib, compared to silodosin alone” value in the series on human prostate tissues [3] (32 Hz, onvansertib 100 nM combined with silodosin 100 nM) is 61% and 61±9.8%. In addition, in the series on human prostate tissues [3] (32 Hz, onvansertib 100 nM combined with tamsulosin 300 nM), the “inhibition of EFS-induced contraction by add-on of onvansertib, compared to tamsulosin alone” value is 59% and 59±11.5%. Moreover, in the series with human prostate tissues [3] (Homo sapiens), the inhibition at 0.1 µM is 34% and the inhibition at 1 µM turned out to be 34%. In addition, in the series on human prostate tissues [3] (washout of onvansertib (100 nM) for 30 min), the “EFS-induced contractions after washout versus DMSO” value is “did not differ”. Besides, in series [4], the plasma concentrations result is recorded as “three-digit nanomolar range”.

The inhibition is the drop in the measured response relative to a control, in per cent.
